Experimental data taken from patent publication US8575185B2, “Compositions, synthesis, and methods of utilizing quinazolinedione derivatives” (Reviva Pharmaceuticals, Inc., priority 2009, dated 2013).
Structures can show the parent of a compound that is named as a salt.

Tests used:
[1] = biological target: T1, dopamine-D2 short (D2S) receptor (Homo sapiens, UniProt P14416); assay: Dopamine, D2s (Human Recombinant) Binding Assay; conditions: human recombinant in CHO cells, [3H]Spiperone
T1 construct: expressed in transfected cells; host or cells: CHO cells
Description: Dopamine, D2s (Human Recombinant) Binding Assay
Receptor Source Human recombinant expressed in CHO cells
Radioligand: [^3H]Spiperone (20-60 Ci/mmol)
Control Compound Haloperidol
Incubation Conditions The reactions were carried out in 50 mM TRIS-HCl (pH 7.4) containing 120 mM NaCl, 5 mM KCl, 5 mM MgCl2, 1 mM EDTA for 60 minutes at 25 C. The reaction was terminated by rapid vacuum filtration onto glass fiber filters. Radioactivity trapped onto the filters was determined and compared to control values in order to ascertain any interactions of test compounds with the cloned dopamine-D2 short binding site (Literature Reference: Jarvis, K. R. et al. Journal of Receptor Research 1993, 13(1-4), 573-590; Gundlach, A. L. et al. Life Sciences 1984, 35, 1981-1988.)
(§1) The radioligand binding assays for dopamine-D2S, serotonin-5HT1A and serotonin-5HT2A were carried out at six different concentrations and the test concentrations were 0.5 nM, 1 nM, 10 nm, 100 nM, 300 nM and 1000 nM.

[2] = biological target: T2, serotonin 5-HT1A receptor (Homo sapiens, UniProt P08908); assay: Serotonin, 5HT1A (Human Recombinant) Binding Assay; conditions: human recombinant in HEK-293 cells, [3H]-8-OH-DPAT
T2 construct: expressed in transfected cells; host or cells: HEK-293 cells
T2 sequence (P08908 1-422): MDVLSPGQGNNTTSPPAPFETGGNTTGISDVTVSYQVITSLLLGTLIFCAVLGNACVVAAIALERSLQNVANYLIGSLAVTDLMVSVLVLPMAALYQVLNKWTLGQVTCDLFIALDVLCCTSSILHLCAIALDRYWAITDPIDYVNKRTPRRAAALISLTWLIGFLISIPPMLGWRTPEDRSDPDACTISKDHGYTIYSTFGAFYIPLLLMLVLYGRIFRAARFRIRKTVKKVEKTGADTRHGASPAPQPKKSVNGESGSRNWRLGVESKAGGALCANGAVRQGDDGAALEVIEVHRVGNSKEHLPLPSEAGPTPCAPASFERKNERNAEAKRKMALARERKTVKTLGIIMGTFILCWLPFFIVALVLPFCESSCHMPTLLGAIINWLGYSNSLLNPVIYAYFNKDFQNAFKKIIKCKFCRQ
Description: Serotonin, 5HT1A (Human Recombinant) Binding Assay
Receptor Source Human recombinant expressed in HEK-293 cells
Radioligand: [^3H]-8-OH-DPAT (221 Ci/mmol)
Control Compound: 8-OH-DPAT
Incubation Conditions The reactions were carried out in 50 mM TRIS-HCl (pH 7.4) containing 10 mM MgSO4, 0.5 mM EDTA and 0.1% Ascorbic acid at room temperature for 1 hour. The reaction was terminated by rapid vacuum filtration onto glass fiber filters. Radioactivity trapped onto the filters was determined and compared to control values in order to ascertain any interactions of test compounds with the cloned serotonin-5HT1A binding site (Literature Reference: Hoyer, D. et al. Eur. Journal Pharmacol. 1985, 118, 13-23; Schoeffter, P. and Hoyer, D. Naunyn-Schmiedeberg's Arch. Pharmac. 1989, 340, 135-138)
as §1

[3] = biological target: T3, serotonin 5-HT2A receptor (Homo sapiens, UniProt P28223); assay: Serotonin, 5HT2a (Human) Binding Assay; conditions: human cortex, [3H]-Ketanserin
T3 construct: Receptor Source Human Cortex; from tissue; host or cells: human cortex
Description: Serotonin, 5HT2a (Human) Binding Assay
Receptor Source Human Cortex
Radioligand: [^3H]-Ketanserin (60-90 Ci/mmol)
Control Compound Ketanserin
Incubation Conditions: The reactions were carried out in 50 mM TRIS-HCl (pH 7.6) at room temperature for 90 minutes. The reaction was terminated by rapid vacuum filtration onto glass fiber filters. Radioactivity trapped onto the filters was determined and compared to control values in order to ascertain any interactions of test compounds with the serotonin-5HT2A binding site (Literature Reference: Leysen, J. E. et al. Mol. Pharmacol. 1982, 21, 301-314; Martin, G. R. and Humphrey, P. P. A. Neuropharmacol. 1994, 33(3/4), 261-273.)
as §1

T1 sequence (P14416 1-414 isoform P14416-2): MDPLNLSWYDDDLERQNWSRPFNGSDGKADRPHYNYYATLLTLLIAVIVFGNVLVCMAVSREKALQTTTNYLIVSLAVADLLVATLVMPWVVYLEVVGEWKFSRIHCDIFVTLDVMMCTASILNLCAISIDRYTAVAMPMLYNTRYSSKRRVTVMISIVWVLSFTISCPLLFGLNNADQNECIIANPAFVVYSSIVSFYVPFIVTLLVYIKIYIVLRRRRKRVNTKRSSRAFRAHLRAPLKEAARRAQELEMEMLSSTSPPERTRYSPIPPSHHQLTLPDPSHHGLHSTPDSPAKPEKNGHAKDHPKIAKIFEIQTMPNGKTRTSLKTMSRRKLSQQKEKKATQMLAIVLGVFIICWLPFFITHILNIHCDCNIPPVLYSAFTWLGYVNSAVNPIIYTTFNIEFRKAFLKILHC
T3 sequence (P28223 whole entry): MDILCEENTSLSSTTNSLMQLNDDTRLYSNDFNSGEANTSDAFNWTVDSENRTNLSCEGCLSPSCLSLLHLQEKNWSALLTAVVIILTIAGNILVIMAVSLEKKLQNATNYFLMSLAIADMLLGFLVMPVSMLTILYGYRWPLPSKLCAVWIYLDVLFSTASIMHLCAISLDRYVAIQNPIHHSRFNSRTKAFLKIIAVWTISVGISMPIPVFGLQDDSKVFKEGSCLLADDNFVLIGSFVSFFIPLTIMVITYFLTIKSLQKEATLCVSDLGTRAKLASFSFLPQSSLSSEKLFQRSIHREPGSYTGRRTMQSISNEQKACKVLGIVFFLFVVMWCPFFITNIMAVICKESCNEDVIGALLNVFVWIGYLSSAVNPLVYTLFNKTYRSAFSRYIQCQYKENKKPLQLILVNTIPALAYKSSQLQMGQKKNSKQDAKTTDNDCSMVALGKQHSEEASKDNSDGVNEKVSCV

Compound | IC50 [1] [nM] | Ki [1] [nM] | IC50 [2] [nM] | Ki [2] [nM] | IC50 [3] [nM] | Ki [3] [nM]
O=c1[nH]c(=O)c2ccc(OCCCCN3CCN(c4cccc(Cl)c4Cl)CC3)cc2[nH]1 [Compound 10b, 7-(4-(4-(2,3-Dichlorophenyl)piperazin-1-yl)butoxy)quinazoline-2,4(1H, 3H)-dione hydrochloride] | 1.35 | 0.43 | 1.63 | 0.99 | 38.3 | 20.4
O=c1[nH]c2ccccc2c(=O)n1CCCCN1CCN(c2cccc(Cl)c2Cl)CC1 [Compound 17b, 3-(4-(4-(2,3-Dichlorophenyl)piperazin-1-yl)butyl)quinazoline-2,4(1H, 3H)-dione hydrochloride] | 6.35 | 1.87 | 0.95 | 0.58 | 82.6 | 40.5
COc1ccccc1N1CCN(CCCCOc2ccc3c(=O)[nH]c(=O)[nH]c3c2)CC1 [Compound 10a, 7-(4-(4-(2-Methoxyphenyl)piperazin-1-yl)butoxy)quinazoline-2,4(1H, 3H)-dione hydrochloride] | 2.5 | 0.74 | 1.09 | 0.66 | 268 | 131
